The supplement of paper PMC10307832

Columns and labels:
Assay in all cases: relative viability (nuclei count vs DMSO), 5 days (fraction); higher = more cells survive
[1] = test system: NCI-H2023
How it was run: (§1)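 One day after seeding in 1536-well plates, lung cancer cell lines were dosed by pin tool. Dosing was either single-drug or a fixed anchor-drug dose plus five library-drug doses (not always all listed) in √10 steps. After 5 days, nuclei were stained in one fix-and-stain step and counted on 4× images, and relative viability is the nuclei count of treated wells over that of vehicle wells, given as the median of duplicate plates.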

[2] = test system: NCI-H2085
How it was run: as §1

[3] = test system: SK-LU-1
How it was run: as §1

[4] = test system: PC-14
How it was run: as §1

[5] = test system: LCLC-97TM1
How it was run: as §1

[6] = test system: NCI-H2342
How it was run: as §1

[7] = test system: NCI-H2009
How it was run: as §1

[8] = test system: EPLC-272H
How it was run: as §1

[9] = test system: H3255
How it was run: as §1

[10] = test system: LXF-289
How it was run: as §1

[11] = test system: NCI-H727
How it was run: as §1

[12] = test system: NCI-H1650
How it was run: as §1

[13] = test system: HOP-62
How it was run: as §1

[14] = test system: NCI-H2347
How it was run: as §1

[15] = test system: NCI-H2126
How it was run: as §1

[16] = test system: NCI-H322M
How it was run: as §1

[17] = test system: NCI-H1915
How it was run: as §1

[18] = test system: SW 1573
How it was run: as §1

[19] = test system: EMC-BAC-2
How it was run: as §1

[20] = test system: NCI-H647
How it was run: as §1

[21] = test system: NCI-H1993
How it was run: as §1

[22] = test system: NCI-H661
How it was run: as §1

## CC1(C)CCC(c2ccc(Cl)cc2)=C(CN2CCN(c3ccc(C(=O)NS(=O)(=O)c4ccc(N[C@H](CCN5CCOCC5)CSc5ccccc5)c(S(=O)(=O)C(F)(F)F)c4)cc3)CC2)C1 [Navitoclax] + CC(=O)Nc1cccc(-n2c(=O)n(C3CC3)c(=O)c3c(Nc4ccc(I)cc4F)n(C)c(=O)c(C)c32)c1 [Trametinib] (partner 0.02 µM)
[1]; first compound 0.005 µM
  relative viability: 0.556
[1]; first compound 0.01581 µM
  relative viability: 0.724
[1]; first compound 0.05 µM
  relative viability: 0.554
[1]; first compound 0.1581 µM
  relative viability: 0.5
[1]; first compound 0.5 µM
  relative viability: 0.547
[2]; first compound 0.005 µM
  relative viability: 0.567
[2]; first compound 0.01581 µM
  relative viability: 0.645
[2]; first compound 0.05 µM
  relative viability: 0.402
[2]; first compound 0.1581 µM
  relative viability: 0.621
[2]; first compound 0.5 µM
  relative viability: 0.552
[3]; first compound 0.005 µM
  relative viability: 0.716
[3]; first compound 0.01581 µM
  relative viability: 0.57
[3]; first compound 0.05 µM
  relative viability: 0.296
[3]; first compound 0.1581 µM
  relative viability: 0.601
[3]; first compound 0.5 µM
  relative viability: 0.433
[4]; first compound 0.005 µM
  relative viability: 0.804
[4]; first compound 0.01581 µM
  relative viability: 1.21
[4]; first compound 0.05 µM
  relative viability: 0.808
[4]; first compound 0.1581 µM
  relative viability: 0.801
[4]; first compound 0.5 µM
  relative viability: 0.695
[5]; first compound 0.005 µM
  relative viability: 0.184
[5]; first compound 0.01581 µM
  relative viability: 0.232
[5]; first compound 0.05 µM
  relative viability: 0.186
[5]; first compound 0.1581 µM
  relative viability: 0.211
[5]; first compound 0.5 µM
  relative viability: 0.189
[6]; first compound 0.005 µM
  relative viability: 0.8
[6]; first compound 0.01581 µM
  relative viability: 0.957
[6]; first compound 0.05 µM
  relative viability: 0.819
[6]; first compound 0.1581 µM
  relative viability: 0.653
[6]; first compound 0.5 µM
  relative viability: 0.967
[7]; first compound 0.005 µM
  relative viability: 0.324
[7]; first compound 0.01581 µM
  relative viability: 0.355
[7]; first compound 0.05 µM
  relative viability: 0.322
[7]; first compound 0.1581 µM
  relative viability: 0.303
[7]; first compound 0.5 µM
  relative viability: 0.308
[8]; first compound 0.005 µM
  relative viability: 0.239
[8]; first compound 0.05 µM
  relative viability: 0.272
[8]; first compound 0.1581 µM
  relative viability: 0.298
[8]; first compound 0.5 µM
  relative viability: 0.277
[9]; first compound 0.005 µM
  relative viability: 0.529
[9]; first compound 0.01581 µM
  relative viability: 0.7
[9]; first compound 0.05 µM
  relative viability: 0.612
[9]; first compound 0.1581 µM
  relative viability: 0.59
[9]; first compound 0.5 µM
  relative viability: 0.582
[10]; first compound 0.005 µM
  relative viability: 0.649
[10]; first compound 0.01581 µM
  relative viability: 0.709
[10]; first compound 0.05 µM
  relative viability: 0.633
[10]; first compound 0.1581 µM
  relative viability: 0.69
[10]; first compound 0.5 µM
  relative viability: 0.692
[11]; first compound 0.005 µM
  relative viability: 0.406
[11]; first compound 0.01581 µM
  relative viability: 0.393
[11]; first compound 0.05 µM
  relative viability: 0.378
[11]; first compound 0.1581 µM
  relative viability: 0.399
[11]; first compound 0.5 µM
  relative viability: 0.403
[12]; first compound 0.005 µM
  relative viability: 0.646
[12]; first compound 0.01581 µM
  relative viability: 0.723
[12]; first compound 0.05 µM
  relative viability: 0.489
[12]; first compound 0.1581 µM
  relative viability: 0.439
[12]; first compound 0.5 µM
  relative viability: 0.45
[13]; first compound 0.005 µM
  relative viability: 0.377
[13]; first compound 0.01581 µM
  relative viability: 0.404
[13]; first compound 0.05 µM
  relative viability: 0.362
[13]; first compound 0.1581 µM
  relative viability: 0.365
[13]; first compound 0.5 µM
  relative viability: 0.39
[14]; first compound 0.005 µM
  relative viability: 0.296
[14]; first compound 0.01581 µM
  relative viability: 0.314
[14]; first compound 0.05 µM
  relative viability: 0.26
[14]; first compound 0.1581 µM
  relative viability: 0.32
[14]; first compound 0.5 µM
  relative viability: 0.259
[15]; first compound 0.005 µM
  relative viability: 0.554
[15]; first compound 0.01581 µM
  relative viability: 0.639
[15]; first compound 0.05 µM
  relative viability: 0.638
[15]; first compound 0.1581 µM
  relative viability: 0.524
[15]; first compound 0.5 µM
  relative viability: 0.561
[16]; first compound 0.005 µM
  relative viability: 0.538
[16]; first compound 0.01581 µM
  relative viability: 0.533
[16]; first compound 0.05 µM
  relative viability: 0.453
[16]; first compound 0.1581 µM
  relative viability: 0.484
[16]; first compound 0.5 µM
  relative viability: 0.539
[17]; first compound 0.005 µM
  relative viability: 0.287
[17]; first compound 0.01581 µM
  relative viability: 0.327
[17]; first compound 0.05 µM
  relative viability: 0.297
[17]; first compound 0.1581 µM
  relative viability: 0.314
[17]; first compound 0.5 µM
  relative viability: 0.331
[18]; first compound 0.005 µM
  relative viability: 0.623
[18]; first compound 0.01581 µM
  relative viability: 0.5
[18]; first compound 0.05 µM
  relative viability: 0.654
[18]; first compound 0.1581 µM
  relative viability: 0.475
[18]; first compound 0.5 µM
  relative viability: 0.474
[19]; first compound 0.005 µM
  relative viability: 0.728
[19]; first compound 0.01581 µM
  relative viability: 0.87
[19]; first compound 0.05 µM
  relative viability: 0.866
[19]; first compound 0.1581 µM
  relative viability: 0.848
[19]; first compound 0.5 µM
  relative viability: 0.806
[20]; first compound 0.005 µM
  relative viability: 0.345
[20]; first compound 0.01581 µM
  relative viability: 0.521
[20]; first compound 0.05 µM
  relative viability: 0.331
[20]; first compound 0.1581 µM
  relative viability: 0.534
[20]; first compound 0.5 µM
  relative viability: 0.408
[21]; first compound 0.005 µM
  relative viability: 0.521
[21]; first compound 0.01581 µM
  relative viability: 0.513
[21]; first compound 0.05 µM
  relative viability: 0.508
[21]; first compound 0.1581 µM
  relative viability: 0.454
[21]; first compound 0.5 µM
  relative viability: 0.642
[22]; first compound 0.005 µM
  relative viability: 0.516
[22]; first compound 0.01581 µM
  relative viability: 0.702
[22]; first compound 0.05 µM
  relative viability: 0.551
[22]; first compound 0.1581 µM
  relative viability: 0.533
[22]; first compound 0.5 µM
  relative viability: 0.538
